{
  "source": "PubChem BioAssay AID1963971",
  "about": "(Molecular Pharmacology Branch, DTP, NCI, 2024);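 further: spheroids exposed to compounds for seven days before read-out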",
  "tested_on": "953936-095-R-J2-PDC spheroids with HUVEC/MSC, viability",
  "assay": "Anticancer human tumor 953936-095-R-J2-PDC patient-derived cervical squamous cell carcinoma cell line growth inhibition [PI3K]",
  "conditions": "for IC50: curve of first compound; for viability, T/C: stronger effect = lower value",
  "summary_of_the_method": "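Multi-cell spheroids combine tumor cells with HUVEC and human MSCs, treated with targeted agents alone or with inavolisib, alpelisib, duvelisib or copanlisib. Concentrations fall in half-log steps from at or near clinical Cmax, or from 10 microM where Cmax is unknown; viability read-out.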",
  "key": {"[1]": {"conditions": "second compound 0.00316 µM, first compound 0.0316 µM"}, "[2]": {"conditions": "second compound 0.00316 µM, first compound 0.1 µM"}, "[3]": {"conditions": "second compound 0.00316 µM, first compound 0.316 µM"}, "[4]": {"conditions": "second compound 0.00316 µM, first compound 1 µM"}, "[5]": {"conditions": "second compound 0.00316 µM, first compound 3.16 µM"}, "[6]": {"conditions": "second compound 0.00316 µM, first compound 10 µM"}, "[7]": {"conditions": "second compound 0.01 µM, first compound 0.0316 µM"}, "[8]": {"conditions": "second compound 0.01 µM, first compound 0.1 µM"}, "[9]": {"conditions": "second compound 0.01 µM, first compound 0.316 µM"}, "[10]": {"conditions": "second compound 0.01 µM, first compound 1 µM"}, "[11]": {"conditions": "second compound 0.01 µM, first compound 3.16 µM"}, "[12]": {"conditions": "second compound 0.01 µM, first compound 10 µM"}, "[13]": {"conditions": "second compound 0.0316 µM, first compound 0.0316 µM"}, "[14]": {"conditions": "second compound 0.0316 µM, first compound 0.1 µM"}, "[15]": {"conditions": "second compound 0.0316 µM, first compound 0.316 µM"}, "[16]": {"conditions": "second compound 0.0316 µM, first compound 1 µM"}, "[17]": {"conditions": "second compound 0.0316 µM, first compound 3.16 µM"}, "[18]": {"conditions": "second compound 0.0316 µM, first compound 10 µM"}, "[19]": {"conditions": "second compound 0.1 µM, first compound 0.0316 µM"}, "[20]": {"conditions": "second compound 0.1 µM, first compound 0.1 µM"}, "[21]": {"conditions": "second compound 0.1 µM, first compound 0.316 µM"}, "[22]": {"conditions": "second compound 0.1 µM, first compound 1 µM"}, "[23]": {"conditions": "second compound 0.1 µM, first compound 3.16 µM"}, "[24]": {"conditions": "second compound 0.1 µM, first compound 10 µM"}, "[25]": {"conditions": "second compound 0.316 µM, first compound 0.0316 µM"}, "[26]": {"conditions": "second compound 0.316 µM, first compound 0.1 µM"}, "[27]": {"conditions": "second compound 0.316 µM, first compound 0.316 µM"}, "[28]": {"conditions": "second compound 0.316 µM, first compound 1 µM"}, "[29]": {"conditions": "second compound 0.316 µM, first compound 3.16 µM"}, "[30]": {"conditions": "second compound 0.316 µM, first compound 10 µM"}, "[31]": {"conditions": "second compound 1 µM, first compound 0.0316 µM"}, "[32]": {"conditions": "second compound 1 µM, first compound 0.1 µM"}, "[33]": {"conditions": "second compound 1 µM, first compound 0.316 µM"}, "[34]": {"conditions": "second compound 1 µM, first compound 1 µM"}, "[35]": {"conditions": "second compound 1 µM, first compound 3.16 µM"}, "[36]": {"conditions": "second compound 1 µM, first compound 10 µM"}},
  "data": [
    {"smiles": "C[C@@H](NC(=O)c1ncnc(N)c1Cl)c1ncc(C(=O)Nc2cc(C(F)(F)F)c(Cl)cn2)s1", "note": "+ COc1c(OCCCN2CCOCC2)ccc2c3n(c(=NC(=O)c4cnc(N)nc4)nc12)CCN3", "values": [
      {"measurement": "IC50", "setting": "second compound 0.00316 µM", "value": "> 10", "unit": "µM"},
      {"measurement": "IC50", "setting": "second compound 0.01 µM", "value": "> 10", "unit": "µM"},
      {"measurement": "IC50", "setting": "second compound 0.0316 µM", "value": "< 0.0316", "unit": "µM"},
      {"measurement": "IC50", "setting": "second compound 0.1 µM", "value": "< 0.0316", "unit": "µM"},
      {"measurement": "IC50", "setting": "second compound 0.316 µM", "value": "< 0.0316", "unit": "µM"},
      {"measurement": "IC50", "setting": "second compound 1 µM", "value": "< 0.0316", "unit": "µM"},
      {"measurement": "viability, T/C", "setting": "[1]", "value": 89.7, "unit": "%"},
      {"measurement": "viability, T/C", "setting": "[2]", "value": 91.8, "unit": "%"},
      {"measurement": "viability, T/C", "setting": "[3]", "value": 88.7, "unit": "%"},
      {"measurement": "viability, T/C", "setting": "[4]", "value": 104, "unit": "%"},
      {"measurement": "viability, T/C", "setting": "[5]", "value": 110, "unit": "%"},
      {"measurement": "viability, T/C", "setting": "[6]", "value": 106, "unit": "%"},
      {"measurement": "viability, T/C", "setting": "[7]", "value": 73.7, "unit": "%"},
      {"measurement": "viability, T/C", "setting": "[8]", "value": 77.9, "unit": "%"},
      {"measurement": "viability, T/C", "setting": "[9]", "value": 84.7, "unit": "%"},
      {"measurement": "viability, T/C", "setting": "[10]", "value": 86.9, "unit": "%"},
      {"measurement": "viability, T/C", "setting": "[11]", "value": 85.5, "unit": "%"},
      {"measurement": "viability, T/C", "setting": "[12]", "value": 77.3, "unit": "%"},
      {"measurement": "viability, T/C", "setting": "[13]", "value": 40.9, "unit": "%"},
      {"measurement": "viability, T/C", "setting": "[14]", "value": 50, "unit": "%"},
      {"measurement": "viability, T/C", "setting": "[15]", "value": 48.1, "unit": "%"},
      {"measurement": "viability, T/C", "setting": "[16]", "value": 49.7, "unit": "%"},
      {"measurement": "viability, T/C", "setting": "[17]", "value": 54.9, "unit": "%"},
      {"measurement": "viability, T/C", "setting": "[18]", "value": 48.7, "unit": "%"},
      {"measurement": "viability, T/C", "setting": "[19]", "value": 19.3, "unit": "%"},
      {"measurement": "viability, T/C", "setting": "[20]", "value": 22, "unit": "%"},
      {"measurement": "viability, T/C", "setting": "[21]", "value": 22.8, "unit": "%"},
      {"measurement": "viability, T/C", "setting": "[22]", "value": 21.9, "unit": "%"},
      {"measurement": "viability, T/C", "setting": "[23]", "value": 23, "unit": "%"},
      {"measurement": "viability, T/C", "setting": "[24]", "value": 20.7, "unit": "%"},
      {"measurement": "viability, T/C", "setting": "[25]", "value": 7.52, "unit": "%"},
      {"measurement": "viability, T/C", "setting": "[26]", "value": 8.48, "unit": "%"},
      {"measurement": "viability, T/C", "setting": "[27]", "value": 7.48, "unit": "%"},
      {"measurement": "viability, T/C", "setting": "[28]", "value": 9.8, "unit": "%"},
      {"measurement": "viability, T/C", "setting": "[29]", "value": 10.3, "unit": "%"},
      {"measurement": "viability, T/C", "setting": "[30]", "value": 7.69, "unit": "%"},
      {"measurement": "viability, T/C", "setting": "[31]", "value": 1.88, "unit": "%"},
      {"measurement": "viability, T/C", "setting": "[32]", "value": 2.05, "unit": "%"},
      {"measurement": "viability, T/C", "setting": "[33]", "value": 2.83, "unit": "%"},
      {"measurement": "viability, T/C", "setting": "[34]", "value": 2.99, "unit": "%"},
      {"measurement": "viability, T/C", "setting": "[35]", "value": 3.46, "unit": "%"},
      {"measurement": "viability, T/C", "setting": "[36]", "value": 3.33, "unit": "%"}
    ]},
    {"smiles": "CNC(=O)c1ccc(N2C(=S)N(c3ccc(C#N)c(C(F)(F)F)c3)C(=O)C2(C)C)cc1F", "note": "+ CC(Nc1ccc2c(c1)OCCn1cc(N3C(=O)OCC3C(F)F)nc1-2)C(N)=O", "values": [
      {"measurement": "IC50", "setting": "second compound 0.00316 µM", "value": "> 10", "unit": "µM"},
      {"measurement": "IC50", "setting": "second compound 0.01 µM", "value": "> 10", "unit": "µM"},
      {"measurement": "IC50", "setting": "second compound 0.0316 µM", "value": "> 10", "unit": "µM"},
      {"measurement": "IC50", "setting": "second compound 0.1 µM", "value": 4.15, "unit": "µM"},
      {"measurement": "IC50", "setting": "second compound 0.316 µM", "value": "< 0.0316", "unit": "µM"},
      {"measurement": "IC50", "setting": "second compound 1 µM", "value": "< 0.0316", "unit": "µM"},
      {"measurement": "viability, T/C", "setting": "[1]", "value": 89.1, "unit": "%"},
      {"measurement": "viability, T/C", "setting": "[2]", "value": 103, "unit": "%"},
      {"measurement": "viability, T/C", "setting": "[3]", "value": 90.5, "unit": "%"},
      {"measurement": "viability, T/C", "setting": "[4]", "value": 87.3, "unit": "%"},
      {"measurement": "viability, T/C", "setting": "[5]", "value": 88.1, "unit": "%"},
      {"measurement": "viability, T/C", "setting": "[6]", "value": 77.5, "unit": "%"},
      {"measurement": "viability, T/C", "setting": "[7]", "value": 93.4, "unit": "%"},
      {"measurement": "viability, T/C", "setting": "[8]", "value": 92.7, "unit": "%"},
      {"measurement": "viability, T/C", "setting": "[9]", "value": 90.3, "unit": "%"},
      {"measurement": "viability, T/C", "setting": "[10]", "value": 84.4, "unit": "%"},
      {"measurement": "viability, T/C", "setting": "[11]", "value": 90.5, "unit": "%"},
      {"measurement": "viability, T/C", "setting": "[12]", "value": 88.6, "unit": "%"},
      {"measurement": "viability, T/C", "setting": "[13]", "value": 75.9, "unit": "%"},
      {"measurement": "viability, T/C", "setting": "[14]", "value": 78.6, "unit": "%"},
      {"measurement": "viability, T/C", "setting": "[15]", "value": 87, "unit": "%"},
      {"measurement": "viability, T/C", "setting": "[16]", "value": 71, "unit": "%"},
      {"measurement": "viability, T/C", "setting": "[17]", "value": 74.5, "unit": "%"},
      {"measurement": "viability, T/C", "setting": "[18]", "value": 71.4, "unit": "%"},
      {"measurement": "viability, T/C", "setting": "[19]", "value": 60.7, "unit": "%"},
      {"measurement": "viability, T/C", "setting": "[20]", "value": 55.5, "unit": "%"},
      {"measurement": "viability, T/C", "setting": "[21]", "value": 57.2, "unit": "%"},
      {"measurement": "viability, T/C", "setting": "[22]", "value": 53.4, "unit": "%"},
      {"measurement": "viability, T/C", "setting": "[23]", "value": 50.5, "unit": "%"},
      {"measurement": "viability, T/C", "setting": "[24]", "value": 47.8, "unit": "%"},
      {"measurement": "viability, T/C", "setting": "[25]", "value": 32.5, "unit": "%"},
      {"measurement": "viability, T/C", "setting": "[26]", "value": 35.6, "unit": "%"},
      {"measurement": "viability, T/C", "setting": "[27]", "value": 35.1, "unit": "%"},
      {"measurement": "viability, T/C", "setting": "[28]", "value": 36.4, "unit": "%"},
      {"measurement": "viability, T/C", "setting": "[29]", "value": 33.3, "unit": "%"},
      {"measurement": "viability, T/C", "setting": "[30]", "value": 31.5, "unit": "%"},
      {"measurement": "viability, T/C", "setting": "[31]", "value": 22.4, "unit": "%"},
      {"measurement": "viability, T/C", "setting": "[32]", "value": 22.8, "unit": "%"},
      {"measurement": "viability, T/C", "setting": "[33]", "value": 21.5, "unit": "%"},
      {"measurement": "viability, T/C", "setting": "[34]", "value": 21.8, "unit": "%"},
      {"measurement": "viability, T/C", "setting": "[35]", "value": 24.1, "unit": "%"},
      {"measurement": "viability, T/C", "setting": "[36]", "value": 23, "unit": "%"}
    ]}
  ]
}
